Laboratory results taken from patent US8541373B2, “BChE albumin fusions for the treatment of cocaine abuse” (priority 2009, dated 2013).
Several values for one entry are separate records, joined by “and”; a condition that tells them apart may be missing. Equal values may be shown once.

Assays:
[1] = tested on: cocaine subjective effects; experiment: Clinical study: subjective effects of cocaine (visual analogue scale); format: in vivo, human; details: humans
Description: Subjective effects are measured using a computerized (21 CFR 11 validated) visual analogue scale (VAS). The time points for collection of subjective effects match with those for cocaine blood samples. The following set of VAS are: Drug Liking, Take Drug Again, Overall Drug Liking, High, Good Effects, Bad Effects, Feeling Rush, Desire for Cocaine, Feeling Anxious, Over-Stimulated, and Any Drug Effects.
PD sampling timepoints of VAS parameters after each cocaine dose are as follows: pre-dose, 2, 5, 10, 15, 30, 45, 60, 90, and 120 minutes post dose.

[2] = Cardiovascular and respiratory safety pharmacology of AlbuBChE alone (telemetry); details: 15 mg/kg IM
Description: Prior to the start of the study, the monkeys were surgically instrumented with telemetry transmitters and vascular access ports. The following CV parameters were monitored: systolic pressure, diastolic pressure, mean arterial blood pressure, mean heart rate and mean rate-pressure product. Body temperatures changes were also monitored.
Study Group 1 (3 males and 3 females), served as a control group for testing the effect of AlbuBChE alone compared to its vehicle. Monkeys were administered (IM) with the control article AlbuBChE formulation buffer on Study Days (SDs) 1 and 4. Three hours post formulation buffer administration respiratory and cardiovascular (CV) parameters were recorded, respectively.
A single IM dose of the test article (AlbuBChE at 15 mg/kg) was administered on SD 8 and 11. Three hours after AlbuBChE dosing (corresponding to Tmax of AlbuBChE) CV and respiratory parameters were monitored, respectively.
The physiological responses to test article administration, including blood pressure, heart rate, body temperature, and the electrocardiograph (ECG), were monitored.

[3] = AlbuBChE antibodies and blood level after repeated AlbuBChE injections
Excerpt: The monkeys trained to self-administer cocaine and also tested on the reinstatement procedure received a total of 4 injections of AlbuBChE. Blood was taken for determination of AlbuBChE antibodies after the first, second and fourth AlbuBChE injections.

[4] = tested on: cocaine discriminative-stimulus effects; experiment: Drug discrimination in methamphetamine-trained monkeys; format: in vivo, squirrel monkeys
cocaine = experiment: Plasma cocaine, ecgonine methyl ester and benzoylecgonine after IV cocaine post-AlbuBChE; format: in vivo, Squirrel monkeys; details: for Benzoylecgonine Plasma Concentration, Mean / Cocaine Plasma Concentration, Mean / Ecgonine methyl ester plasma concentration (mean): mean n=3
Description: Blood was placed into K2EDTA blood collection tubes with esterase inhibitor (diisopropylfluorophosphate (DFP). Tubes were inverted several times and placed on wet ice upon collection. Samples were centrifuged at 2-8° C. within 45 minutes of collection. The resultant plasma will be recovered and a single 200 μL aliquot of plasma was placed into polypropylene tubes. Plasma samples was frozen over dry ice and stored at approximately −70° C.
The bioanalytical method measured the plasma concentration of cocaine and two of its metabolites: ecgonine methyl ester and benzoylecgonine. Cocaine metabolic pathway is shown in FIG. 9, ecgonine methyl ester metabolite is formed directly from cocaine through the butrylcholine esterase enzyme. As such, this metabolite can be predicted to increase following AlbuBChE administration.
The blood level data were analyzed separately for each metabolite and time point (5 or 30 min). A one-way analysis-of-variance (ANOVA) was performed with follow-up Dunnett tests using the results of monkeys treated with vehicle as the control. The self-administration data were analyzed separately for response rate or injections following either vehicle treatment or AlbuBChE treatment. Control data were included in the analysis by taking the average of the last 3 days for the immediately preceding baseline condition. A within subjects ANOVA was then performed with follow-up tests contrasting days following vehicle or AlbuBChE with the control. For the reinstatement tests, a two-way ANOVA was performed for both response rate and injections, with time post vehicle or AlbuBChE as the within-subjects factor and pretreatment (vehicle or AlbuBChE) as the between subjects factor. Follow-up contrast compared vehicle and AlbuBChE at each time point.

[5] = rats; cited from earlier work
[6] = 5 min after cocaine 1 mg/kg IV given 2 hr post-AlbuBChE 5 mg/kg IM, individual monkeys 547, 3434, 53B
[7] = 5 min after cocaine 1 mg/kg IV given 72 hr post-AlbuBChE 5 mg/kg IM, individual monkeys
[8] = 5 min after cocaine 1 mg/kg IV given 96 hr post-AlbuBChE 5 mg/kg IM, individual monkeys
[9] = 5 min after cocaine 1 mg/kg IV, 2 hr post-AlbuBChE 5 mg/kg IM
[10] = 5 min after cocaine 1 mg/kg IV, 72 hr post-AlbuBChE 5 mg/kg IM
[11] = 5 min after cocaine 1 mg/kg IV, 96 hr post-AlbuBChE 5 mg/kg IM
[12] = 30 min after cocaine 1 mg/kg IV given 2 hr post-AlbuBChE 5 mg/kg IM, individual monkeys
[13] = 30 min after cocaine 1 mg/kg IV given 72 hr post-AlbuBChE 5 mg/kg IM, individual monkeys
[14] = 30 min after cocaine 1 mg/kg IV given 96 hr post-AlbuBChE 5 mg/kg IM, individual monkeys
[15] = 30 min after cocaine 1 mg/kg IV, 2 hr post-AlbuBChE 5 mg/kg IM
[16] = 30 min after cocaine 1 mg/kg IV, 72 hr post-AlbuBChE 5 mg/kg IM
[17] = 30 min after cocaine 1 mg/kg IV, 96 hr post-AlbuBChE 5 mg/kg IM

AlbuBChE
VAS Bad Effects ([1]; following cocaine exposure): reduces the feeling of “bad effects” | Duration of decreased desire to use cocaine ([1]; single administration): up to one week | VAS Any Drug Effects ([1]; vs placebo): reduces the reporting of “any drug effects.” | VAS Desire for Cocaine ([1]; vs placebo): decreases the desire for cocaine | VAS Drug Liking ([1]; vs placebo): decreases cocaine liking | VAS Feeling Anxious ([1]; vs placebo): reduces feelings of anxiousness | VAS Feeling Rush ([1]; vs placebo): decreases subjective feeling of “rush” | VAS Good Effects ([1]; vs placebo): decreases the subjective feeling of “good effects” | VAS High ([1]; vs placebo): decreases the “high” | VAS Over-Stimulated ([1]; vs placebo): reduces feelings of being over-stimulated | VAS Overall Drug Liking ([1]; vs placebo): decreases overall drug liking | VAS Take Drug Again ([1]; vs placebo): decreases the desire to take cocaine again | Changes in recorded CV parameters and body temperature vs formulation buffer [2]: did not produce any significant changes | Survival ([2]; with or without cocaine): All animals survived | AlbuBChE antibody levels ([3]; following the first 2 injections, level of detection titer 20): below the level of detection | AlbuBChE antibody titer, individual monkeys ([3]; following the fourth injection): 21 and 43 and 643 | Concentration of AlbuBChE in the blood, individual monkeys ([3]; one week following the AlbuBChE injection (fourth)): 27 ng/mL and 55 ng/mL and 53 ng/mL | Generalization of cocaine to the methamphetamine cue ([4]; 5 mg/kg 2 hrs prior, 0.3 mg/kg cocaine): failed to generalize | Substitution of cocaine for methamphetamine ([4]; 5 mg/kg 2 hrs prior, 1.0 mg/kg cocaine): approximately 70% | Generalization of cocaine to the methamphetamine cue ([4]; 24 hrs following AlbuBChE, 0.3 mg/kg cocaine): approximately 70% | Generalization of cocaine to the methamphetamine cue ([4]; 24 hrs following AlbuBChE, 1.0 mg/kg cocaine): fully generalized | Generalization of cocaine to the methamphetamine cue ([4]; 48 hrs following AlbuBChE, 0.3 mg/kg cocaine): fully generalized | Generalization of methamphetamine to the methamphetamine cue ([4]; AlbuBChE 2 hrs prior to methamphetamine dose-effect function): did not affect generalization | Rate of responding in discrimination study ([4]; cocaine or methamphetamine treatment condition): did not affect the rate of responding | Ecgonine methyl ester concentration increase over control (cocaine; 5 mg/kg IM, 2 hr post-AlbuBChE, 5 min after cocaine): ~40 fold | Cocaine concentration relative to control (cocaine; 5 mg/kg IM, cocaine 1 mg/kg IV 96 hr post-AlbuBChE): 60 % of control | Benzoylecgonine Plasma Concentration (cocaine; [6]): 4.83 ng/mL and 23.3 ng/mL and 20.1 ng/mL | Cocaine Plasma Concentration (cocaine; [6]): 0.575 ng/mL and 20.0 ng/mL and 22.4 ng/mL | Ecgonine Methyl Ester Plasma Concentration (cocaine; [6]): 109 ng/mL and 417 ng/mL and 333 ng/mL | Benzoylecgonine Plasma Concentration (cocaine; [7]): 9.93 ng/mL and 41.7 ng/mL and 28.8 ng/mL | Cocaine Plasma Concentration (cocaine; [7]): 41.3 ng/mL and 176 ng/mL and 104 ng/mL | Ecgonine Methyl Ester Plasma Concentration (cocaine; [7]): 29.3 ng/mL and 101 ng/mL and 73.2 ng/mL | Benzoylecgonine Plasma Concentration (cocaine; [8]): 15.5 ng/mL and 36.2 ng/mL and 26.3 ng/mL | Cocaine Plasma Concentration (cocaine; [8]): 97.9 ng/mL and 191 ng/mL and 112 ng/mL | Ecgonine Methyl Ester Plasma Concentration (cocaine; [8]): 40.5 ng/mL and 72.3 ng/mL and 35.8 ng/mL | Benzoylecgonine Plasma Concentration, Mean (cocaine; [9]): 16.1 ng/mL | Cocaine Plasma Concentration, Mean (cocaine; [9]): 14.3 ng/mL | Ecgonine methyl ester plasma concentration (mean) (cocaine; [9]): 286 ng/mL | Benzoylecgonine Plasma Concentration, Mean (cocaine; [10]): 26.8 ng/mL | Cocaine Plasma Concentration, Mean (cocaine; [10]): 107 ng/mL | Ecgonine methyl ester plasma concentration (mean) (cocaine; [10]): 67.8 ng/mL | Benzoylecgonine Plasma Concentration, Mean (cocaine; [11]): 26.0 ng/mL | Cocaine Plasma Concentration, Mean (cocaine; [11]): 134 ng/mL | Ecgonine methyl ester plasma concentration (mean) (cocaine; [11]): 49.5 ng/mL | Benzoylecgonine Plasma Concentration (cocaine; [12]): 11.1 ng/mL and 20.8 ng/mL and 10.9 ng/mL | Cocaine Plasma Concentration (cocaine; [12]): 0.581 ng/mL and 0.115 ng/mL and 0.261 ng/mL | Ecgonine Methyl Ester Plasma Concentration (cocaine; [12]): 252 ng/mL and 314 ng/mL and 218 ng/mL | Benzoylecgonine Plasma Concentration (cocaine; [13]): 20.7 ng/mL and 33.4 ng/mL and 21 ng/mL | Cocaine Plasma Concentration (cocaine; [13]): 65.0 ng/mL and 57.9 ng/mL and 44.9 ng/mL | Ecgonine Methyl Ester Plasma Concentration (cocaine; [13]): 61.3 ng/mL and 112 ng/mL and 81.7 ng/mL | Benzoylecgonine Plasma Concentration (cocaine; [14]): 18.9 ng/mL and 37.6 ng/mL and 21.5 ng/mL | Cocaine Plasma Concentration (cocaine; [14]): 62.9 ng/mL and 75.6 ng/mL and 67.1 ng/mL | Ecgonine Methyl Ester Plasma Concentration (cocaine; [14]): 25.7 ng/mL and 76.8 ng/mL and 45.2 ng/mL | Benzoylecgonine Plasma Concentration, Mean (cocaine; [15]): 14.3 ng/mL | Cocaine Plasma Concentration, Mean (cocaine; [15]): 0.319 ng/mL | Ecgonine methyl ester plasma concentration (mean) (cocaine; [15]): 261 ng/mL | Benzoylecgonine Plasma Concentration, Mean (cocaine; [16]): 25.0 ng/mL | Cocaine Plasma Concentration, Mean (cocaine; [16]): 55.9 ng/mL | Ecgonine methyl ester plasma concentration (mean) (cocaine; [16]): 85.0 ng/mL | Benzoylecgonine Plasma Concentration, Mean (cocaine; [17]): 26.0 ng/mL | Cocaine Plasma Concentration, Mean (cocaine; [17]): 68.5 ng/mL | Ecgonine methyl ester plasma concentration (mean) (cocaine; [17]): 49.2 ng/mL | Cocaine blood levels vs vehicle control (cocaine; 2 hours following AlbuBChE, 5- and 30-min time points): significantly reduced | Blood levels of BZ vs vehicle control (cocaine; 2 hr following AlbuBChE): not significant | Blood levels of EME vs vehicle control (cocaine; 2 hr following AlbuBChE, 5- and 30 min time point): elevated | Cocaine blood levels vs vehicle control (cocaine; 72 hours following AlbuBChE, 30-min post cocaine): significantly below control levels | Blood levels of EME vs vehicle control (cocaine; 72 hours following AlbuBChE, 30 min time point): significantly elevated | Cocaine blood levels vs vehicle control (cocaine; 96 hours following AlbuBChE, 5 or 30 min time point): not significant | Duration of decreased amount of cocaine in the blood (cocaine; Squirrel monkeys, 5 mg/kg): at least 72 hours | Side effects of intravenous administration [5]: modest increase in blood pressure and mild lethargy
